Source: paper PMC3805709 (Nature chemical biology, 2013)

What was measured:
CLC-ec1 [1] = target: CLC-ec1 (Escherichia coli, UniProt P37019, E148A); assay: biochemical
CLC-ec1 [2] = target: CLC-ec1 (Escherichia coli, UniProt P37019); assay: biochemical
Sequence of CLC-ec1 (Escherichia coli, UniProt P37019) (P37019 whole entry): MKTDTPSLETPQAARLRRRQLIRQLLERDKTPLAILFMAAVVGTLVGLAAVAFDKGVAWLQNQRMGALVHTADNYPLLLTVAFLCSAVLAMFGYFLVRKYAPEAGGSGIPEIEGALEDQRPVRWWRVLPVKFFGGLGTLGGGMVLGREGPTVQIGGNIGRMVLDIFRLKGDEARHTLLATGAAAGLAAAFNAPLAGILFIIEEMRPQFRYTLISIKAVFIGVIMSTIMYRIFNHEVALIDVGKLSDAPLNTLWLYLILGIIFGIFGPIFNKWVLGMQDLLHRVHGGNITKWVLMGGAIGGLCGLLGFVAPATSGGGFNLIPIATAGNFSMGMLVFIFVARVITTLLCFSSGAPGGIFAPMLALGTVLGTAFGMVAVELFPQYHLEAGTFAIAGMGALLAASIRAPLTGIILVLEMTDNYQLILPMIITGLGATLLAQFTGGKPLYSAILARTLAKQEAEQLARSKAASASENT

Sequence of CLC-ec1 (Escherichia coli, UniProt P37019, E148A) (P37019 whole entry E148A): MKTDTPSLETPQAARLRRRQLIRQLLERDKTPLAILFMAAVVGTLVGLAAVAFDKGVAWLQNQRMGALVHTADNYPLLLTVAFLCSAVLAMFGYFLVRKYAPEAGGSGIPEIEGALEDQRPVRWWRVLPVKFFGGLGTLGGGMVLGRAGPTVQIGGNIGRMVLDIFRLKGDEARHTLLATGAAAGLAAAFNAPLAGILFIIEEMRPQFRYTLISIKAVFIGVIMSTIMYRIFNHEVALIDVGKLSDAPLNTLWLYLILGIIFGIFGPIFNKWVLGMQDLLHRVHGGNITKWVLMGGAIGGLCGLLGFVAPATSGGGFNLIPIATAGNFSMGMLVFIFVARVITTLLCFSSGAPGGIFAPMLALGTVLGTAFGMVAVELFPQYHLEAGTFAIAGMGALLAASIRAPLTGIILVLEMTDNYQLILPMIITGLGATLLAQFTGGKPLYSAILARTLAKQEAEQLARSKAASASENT

Row | Kd (CLC-ec1 [1]) [µM] | Kd (CLC-ec1 [2]) [µM] | Structure (SMILES)
1 | 180 | 1000 | F [F^−]
2 | – | 600 | Cl [Cl^−]
